According to publication PMC7175138, “Synthesis and Bioactivity of Thiazolethioacetamides as Potential Metallo-β-Lactamase Inhibitors” (Antibiotics, 2020):

What was measured:
[1] = molecular target: ImiS (Aeromonas veronii, UniProt O31272); test: Enzyme inhibition assay, MβL ImiS, cefazolin as substrate; format: biochemical; settings: 25 °C, 30 min premix
Method: (§1) To test the inhibitory activity of compounds 1–12 against MβLs, three representative MβLs, VIM-2 (B1), ImiS (B2), and L1 (B3), were chosen for evaluation.
(§2) The enzyme inhibition activity assay was carried out on an Agilent-8453 UV-visible spectrometer. […] Cefazolin (Sigma-Aldrich, Burlington, MO, USA), with a concentration of 20 to 140 μM, was taken as the substrate. The enzyme and inhibitor were premixed with the corresponding MβL and the thiazolethioacetamides for 30 min. The IC50 values were measured at 25 °C with the inhibitor concentrations of 0 and 1000 μM, and analyzed through IC50 calculation tool (AAT Bioquest Inc., sunnyvale, CA, USA).

[2] = molecular target: VIM-2 (Escherichia coli, UniProt Q5U7L7); test: Enzyme inhibition assay, MβL VIM-2, cefazolin as substrate; format: biochemical; settings: 25 °C, 30 min premix
Method: as §1, §2

Sequence of ImiS (O31272 entry or part of it): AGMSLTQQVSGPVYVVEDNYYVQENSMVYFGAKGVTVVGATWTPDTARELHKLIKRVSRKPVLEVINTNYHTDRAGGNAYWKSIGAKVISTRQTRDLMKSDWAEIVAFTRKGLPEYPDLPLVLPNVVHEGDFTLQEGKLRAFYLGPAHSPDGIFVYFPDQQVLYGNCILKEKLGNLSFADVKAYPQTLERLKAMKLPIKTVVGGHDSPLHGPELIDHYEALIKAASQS

| SMILES | IC50 [1] | IC50 [2] |
| --- | --- | --- |
| O=C(CSc1nnc(-c2ccccc2O)s1)Nc1cc(Cl)ccc1[N+](=O)[O-] [Compound 6] | 360 nM |  |
| O=C(CSc1nnc(-c2ccccc2O)s1)Nc1ccc(F)cc1 [Compound 9] | 460 nM |  |
| O=C(CSc1nnc(-c2ccccc2O)s1)Nc1c(F)cccc1F [Compound 12] | 700 nM | 19200 nM |
| O=C(CSc1nnc(-c2ccccc2O)s1)Nc1ccc(OC(F)(F)F)cc1 [Compound 8] | 310 nM | 2200 nM |
| O=C(CSc1nnc(-c2ccccc2O)s1)Nc1cccc(Cl)c1 [Compound 2] | 530 nM |  |
| O=C(CSc1nnc(-c2ccccc2O)s1)Nc1ccc(Cl)cc1Cl [Compound 4] | 580 nM |  |
| O=C(CSc1nnc(-c2ccccc2O)s1)Nc1ccc(Cl)cc1 [Compound 1] | 580 nM |  |
| O=C(CSc1nnc(-c2ccccc2O)s1)Nc1ccc(Cl)c(Cl)c1 [Compound 3] | 690 nM |  |
| O=C(CSc1nnc(-c2ccccc2O)s1)Nc1ccc(Cl)cc1[N+](=O)[O-] [Compound 5] | 170 nM |  |
| O=C(CSc1nnc(-c2ccccc2O)s1)Nc1ccc([N+](=O)[O-])cc1Cl [Compound 7] | 420 nM |  |
| O=C(CSc1nnc(-c2ccccc2O)s1)Nc1cccc(F)c1 [Compound 10] | 610 nM |  |
| O=C(CSc1nnc(-c2ccccc2O)s1)Nc1ccccc1F [Compound 11] | 680 nM |  |
